Experimental data as given in the supplement of paper PMC12076712.

What was measured:
Test in all cases: pIC50, kinobeads binding competition
CAMK2G = CAMK2G (UniProt Q13555)
How it was run: (§1)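 Jurkat cells were exposed alive to nine compound concentrations (top 30 μM, 1:4 steps) or vehicle for 60 min at 37 °C and then lysed. In a second format, nine concentrations (top 30 μM, 1:5 steps) were incubated for 60 min at 4 °C with Jurkat lysate or with a 1:1:1:1 lysate mix of HEK293, K-562, HepG2 and placenta. Proteins captured on Kinobeads were digested and quantified by TMT10 LC-MS/MS. pIC50 values were derived from logistic dose-response fits (R drc package) of fold changes relative to vehicle, in biological duplicates.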

FGFR2 = FGFR2 (UniProt P21802); details: cell material: Lysate mix
How it was run: as §1

HIPK1 = HIPK1 (UniProt Q86Z02)
How it was run: as §1

NEK6 = NEK6 (UniProt Q9HC98); details: cell material: Lysate mix
How it was run: as §1

NLK = target: T1, NLK (UniProt Q9UBE8)
T1 sequence (whole entry): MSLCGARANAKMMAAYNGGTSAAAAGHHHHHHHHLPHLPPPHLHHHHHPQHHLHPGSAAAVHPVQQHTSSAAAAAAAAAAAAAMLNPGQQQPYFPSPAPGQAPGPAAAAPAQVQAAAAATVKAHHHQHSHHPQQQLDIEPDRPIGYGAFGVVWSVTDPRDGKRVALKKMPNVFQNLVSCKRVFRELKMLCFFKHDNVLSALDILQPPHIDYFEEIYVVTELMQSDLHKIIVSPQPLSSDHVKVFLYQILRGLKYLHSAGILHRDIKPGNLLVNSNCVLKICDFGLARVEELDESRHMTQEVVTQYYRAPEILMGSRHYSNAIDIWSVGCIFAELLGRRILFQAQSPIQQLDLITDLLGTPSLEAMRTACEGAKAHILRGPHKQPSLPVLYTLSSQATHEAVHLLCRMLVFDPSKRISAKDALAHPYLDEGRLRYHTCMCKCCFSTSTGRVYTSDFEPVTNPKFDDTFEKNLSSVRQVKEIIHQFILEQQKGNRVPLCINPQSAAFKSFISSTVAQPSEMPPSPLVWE
How it was run: as §1

PIM1 = PIM1 (UniProt P11309); details: cell material: Lysate mix
How it was run: as §1

PKN3 = PKN3 (UniProt Q6P5Z2); details: cell material: Lysate mix
How it was run: as §1

UniProt O75460 = target: UniProt O75460
How it was run: as §1

UniProt P25098 = target: T2, UniProt P25098
T2 sequence (whole entry): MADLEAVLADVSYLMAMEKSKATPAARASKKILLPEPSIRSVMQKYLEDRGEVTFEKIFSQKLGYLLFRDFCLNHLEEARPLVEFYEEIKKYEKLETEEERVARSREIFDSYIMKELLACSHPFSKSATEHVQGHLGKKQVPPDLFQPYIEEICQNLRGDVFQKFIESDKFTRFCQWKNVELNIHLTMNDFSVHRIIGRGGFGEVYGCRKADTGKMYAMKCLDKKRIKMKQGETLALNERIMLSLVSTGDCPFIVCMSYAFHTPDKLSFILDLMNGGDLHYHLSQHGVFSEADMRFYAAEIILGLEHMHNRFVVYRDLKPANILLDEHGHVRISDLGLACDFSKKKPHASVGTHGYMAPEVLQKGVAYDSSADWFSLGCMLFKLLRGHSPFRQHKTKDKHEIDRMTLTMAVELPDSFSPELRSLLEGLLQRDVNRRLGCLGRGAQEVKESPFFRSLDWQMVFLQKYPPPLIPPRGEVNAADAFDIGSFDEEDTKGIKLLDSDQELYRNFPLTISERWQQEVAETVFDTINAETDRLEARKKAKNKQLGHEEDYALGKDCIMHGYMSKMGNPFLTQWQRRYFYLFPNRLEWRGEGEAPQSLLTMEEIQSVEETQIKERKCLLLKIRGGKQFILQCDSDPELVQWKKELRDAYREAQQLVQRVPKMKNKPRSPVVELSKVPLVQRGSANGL
How it was run: as §1

UniProt P35626 = target: T3, UniProt P35626
T3 sequence (whole entry): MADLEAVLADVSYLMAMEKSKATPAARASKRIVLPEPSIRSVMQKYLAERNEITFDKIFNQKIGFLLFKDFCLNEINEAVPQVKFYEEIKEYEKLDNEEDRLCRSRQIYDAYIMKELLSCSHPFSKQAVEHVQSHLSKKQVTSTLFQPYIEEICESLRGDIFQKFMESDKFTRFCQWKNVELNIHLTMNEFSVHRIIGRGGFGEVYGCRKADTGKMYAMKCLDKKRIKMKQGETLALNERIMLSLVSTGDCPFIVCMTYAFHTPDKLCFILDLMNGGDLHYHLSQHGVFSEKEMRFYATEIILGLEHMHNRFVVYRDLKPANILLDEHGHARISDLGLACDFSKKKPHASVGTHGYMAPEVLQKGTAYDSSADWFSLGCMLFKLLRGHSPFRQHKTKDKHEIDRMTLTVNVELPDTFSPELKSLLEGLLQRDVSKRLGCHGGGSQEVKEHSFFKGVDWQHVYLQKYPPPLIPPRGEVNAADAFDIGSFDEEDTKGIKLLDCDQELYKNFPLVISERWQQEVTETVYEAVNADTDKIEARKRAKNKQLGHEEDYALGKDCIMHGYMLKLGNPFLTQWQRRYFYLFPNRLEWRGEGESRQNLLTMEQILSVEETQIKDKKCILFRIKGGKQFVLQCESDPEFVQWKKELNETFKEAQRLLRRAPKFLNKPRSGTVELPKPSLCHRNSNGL
How it was run: as §1

UniProt P35968 = details: cell material: Lysate mix
How it was run: as §1

UniProt P48730 = target: UniProt P48730
How it was run: as §1

UniProt Q14289 = target: UniProt Q14289
How it was run: as §1

UniProt Q5TCX8 = target: UniProt Q5TCX8
How it was run: as §1

UniProt Q8N4C8 = target: UniProt Q8N4C8
How it was run: as §1

Question: With `O=C(NCCNC(=O)c1cc(Nc2cc(C3CC3)[nH]n2)nc(N2CCN(Cc3ccc(S(=O)(=O)F)cc3)CC2)n1)OC1CC/C=C/CCC1` (stereo not drawn) as the molecule, how does the pIC50 (CAMK2G; cell material: Jurkat cells) read?
Answer: < 4.52

Question: And the pIC50 (CAMK2G; cell material: Jurkat lysate)?
Answer: < 4.52

Question: What about the pIC50 (CAMK2G; cell material: Lysate mix) of the same molecule?
Answer: < 4.52

Question: And the pIC50 (FGFR2)?
Answer: < 4.52

Question: And the pIC50 (HIPK1; cell material: Jurkat cells)?
Answer: 5.3

Question: And the pIC50 (HIPK1; cell material: Jurkat lysate)?
Answer: < 4.52

Question: And the pIC50 (HIPK1; cell material: Lysate mix)?
Answer: < 4.52

Question: And the pIC50 (NEK6)?
Answer: < 4.52

Question: What about the pIC50 (NLK; cell material: Jurkat cells) of the same molecule?
Answer: < 4.52

Question: And the pIC50 (NLK; cell material: Jurkat lysate)?
Answer: < 4.52

Question: And the pIC50 (NLK; cell material: Lysate mix)?
Answer: < 4.52

Question: What about the pIC50 (PIM1) of the same molecule?
Answer: < 4.52

Question: And the pIC50 (PKN3)?
Answer: < 4.52

Question: What about the pIC50 (UniProt O75460; cell material: Jurkat lysate) of the same molecule?
Answer: < 4.52

Question: What about the pIC50 (UniProt O75460; cell material: Lysate mix) of the same molecule?
Answer: < 4.52

Question: And the pIC50 (UniProt P25098; cell material: Jurkat cells)?
Answer: 5

Question: And the pIC50 (UniProt P25098; cell material: Jurkat lysate)?
Answer: < 4.52

Question: What about the pIC50 (UniProt P25098; cell material: Lysate mix) of the same molecule?
Answer: < 4.52

Question: And the pIC50 (UniProt P35626; cell material: Jurkat lysate)?
Answer: < 4.52

Question: And the pIC50 (UniProt P35626; cell material: Lysate mix)?
Answer: < 4.52

Question: What about the pIC50 (UniProt P35968) of the same molecule?
Answer: < 4.52

Question: What about the pIC50 (UniProt P48730; cell material: Jurkat cells) of the same molecule?
Answer: < 4.52

Question: What about the pIC50 (UniProt P48730; cell material: Jurkat lysate) of the same molecule?
Answer: < 4.52

Question: What about the pIC50 (UniProt P48730; cell material: Lysate mix) of the same molecule?
Answer: < 4.52

Question: And the pIC50 (UniProt Q14289; cell material: Jurkat cells)?
Answer: 4.98

Question: And the pIC50 (UniProt Q14289; cell material: Jurkat lysate)?
Answer: < 4.52

Question: What about the pIC50 (UniProt Q14289; cell material: Lysate mix) of the same molecule?
Answer: < 4.52

Question: What about the pIC50 (UniProt Q5TCX8; cell material: Jurkat cells) of the same molecule?
Answer: 4.93

Question: And the pIC50 (UniProt Q5TCX8; cell material: Jurkat lysate)?
Answer: < 4.52

Question: What about the pIC50 (UniProt Q5TCX8; cell material: Lysate mix) of the same molecule?
Answer: < 4.52

Question: What about the pIC50 (UniProt Q8N4C8; cell material: Jurkat cells) of the same molecule?
Answer: 5.12

Question: What about the pIC50 (UniProt Q8N4C8; cell material: Jurkat lysate) of the same molecule?
Answer: < 4.52

Question: What about the pIC50 (UniProt Q8N4C8; cell material: Lysate mix) of the same molecule?
Answer: < 4.52

Question: For `Cc1cc(Nc2cc(C(=O)NCCNC(=O)OC3CC/C=C/CCC3)nc(N3CCN(Cc4ccc(S(=O)(=O)F)cc4)CC3)n2)n[nH]1` (stereo not drawn), which pIC50 (CAMK2G; cell material: Lysate mix) is on record?
Answer: < 4.52

Question: What about the pIC50 (FGFR2) of the same molecule?
Answer: < 4.52

Question: And the pIC50 (HIPK1; cell material: Lysate mix)?
Answer: < 4.52

Question: And the pIC50 (NEK6)?
Answer: < 4.52

Question: What about the pIC50 (NLK; cell material: Lysate mix) of the same molecule?
Answer: < 4.52

Question: And the pIC50 (PIM1)?
Answer: < 4.52

Question: What about the pIC50 (PKN3) of the same molecule?
Answer: < 4.52

Question: What about the pIC50 (UniProt O75460; cell material: Lysate mix) of the same molecule?
Answer: < 4.52

Question: And the pIC50 (UniProt P25098; cell material: Lysate mix)?
Answer: < 4.52

Question: And the pIC50 (UniProt P35626; cell material: Lysate mix)?
Answer: < 4.52

Question: And the pIC50 (UniProt P35968)?
Answer: < 4.52

Question: And the pIC50 (UniProt P48730; cell material: Lysate mix)?
Answer: < 4.52

Question: What about the pIC50 (UniProt Q14289; cell material: Lysate mix) of the same molecule?
Answer: < 4.52

Question: What about the pIC50 (UniProt Q5TCX8; cell material: Lysate mix) of the same molecule?
Answer: < 4.52

Question: And the pIC50 (UniProt Q8N4C8; cell material: Lysate mix)?
Answer: < 4.52

Question: What does the source list for `CCNC(=O)c1cc(Nc2cc(C3CC3)[nH]n2)nc(N2CCN(Cc3ccc(S(=O)(=O)F)cc3)CC2)n1`?
Answer: pIC50 (CAMK2G; cell material: Lysate mix): < 4.52; pIC50 (FGFR2): 5.24; pIC50 (HIPK1; cell material: Lysate mix): 5.78; pIC50 (NEK6): < 4.52; pIC50 (NLK; cell material: Lysate mix): < 4.52; pIC50 (PIM1): < 4.52; pIC50 (PKN3): < 4.52; pIC50 (UniProt O75460; cell material: Lysate mix): < 4.52; pIC50 (UniProt P25098; cell material: Lysate mix): < 4.52; pIC50 (UniProt P35626; cell material: Lysate mix): < 4.52; pIC50 (UniProt P35968): < 4.52; pIC50 (UniProt P48730; cell material: Lysate mix): < 4.52; pIC50 (UniProt Q14289; cell material: Lysate mix): < 4.52; pIC50 (UniProt Q5TCX8; cell material: Lysate mix): 4.65; pIC50 (UniProt Q8N4C8; cell material: Lysate mix): < 4.52
